For one series, the system named is H-1975 cells. The experiment in a line: Growth inhibition, H-1975 lung cancer cells. The class given is cell-based. Conditions: for IC50: Table 10, read-out: Cytotoxicity, IC50 (μM) H-1975. An excerpt: (§1) All samples were in triplicate.
Series [1] deals with PC-3 cells.
The subject of another series is MCF-7 cells. The experiment in a line: Growth inhibition, MCF-7 breast cancer cells. In kind it is cell-based. Conditions: for IC50: Table 10, read-out: Cytotoxicity, IC50 (μM) MCF-7.
From the text: as §1

Series [2] relates to 22Rv1 cells.
Method: (§2) MDA PCa 2b was seeded at the same density in medium BRFF-HPC1 (Athena Enzyme Systems, Baltimore, Md., USA) supplemented with 20% FBS. After overnight incubation, the medium was changed to a fresh medium containing different concentrations of test compounds diluted from stock DMSO solution. The final concentration of DMSO is 0.5%. After 72 h of incubation with test compounds, 20 μL of 3-(4,5-dimethyl thiazol-2-yl)-2,5-diphenyltetrazolium bromide (MTT) solution (5 mg/mL in PBS) were added to each well and incubated further for 2 h. Next, the supernatant was aspirated and the MTT formazan formed by metabolically viable cells was dissolved in 100 μL of isopropanol. The plates were mixed for 30 min, and the absorbance was measured at 600 nm on a plate reader (FLUOstar OPTIMA, BMG LabTech). All samples were in triplicate. The IC50 values were determined from dose-response curves by nonlinear regression using PRISM v5.00 (GraphPad Software Inc, La Jolla, Calif., USA).
(§3) The in vitro cytotoxicity of 1-20 were evaluated by MTT assays in a panel of prostate cancer cell lines, including LNCaP, MDA PCa 2b, 22Rv1, C4-2B and PC-3.
In a further series the target is T1, wild-type human AR (Homo sapiens, UniProt P10275).
T1 construct: utilizing plasmid expressing a full length of AR; expressed in transfected cells; host or cells: PC-3 cells, plasmid pCMV-AR-wt
T1 sequence (P10275 1-920): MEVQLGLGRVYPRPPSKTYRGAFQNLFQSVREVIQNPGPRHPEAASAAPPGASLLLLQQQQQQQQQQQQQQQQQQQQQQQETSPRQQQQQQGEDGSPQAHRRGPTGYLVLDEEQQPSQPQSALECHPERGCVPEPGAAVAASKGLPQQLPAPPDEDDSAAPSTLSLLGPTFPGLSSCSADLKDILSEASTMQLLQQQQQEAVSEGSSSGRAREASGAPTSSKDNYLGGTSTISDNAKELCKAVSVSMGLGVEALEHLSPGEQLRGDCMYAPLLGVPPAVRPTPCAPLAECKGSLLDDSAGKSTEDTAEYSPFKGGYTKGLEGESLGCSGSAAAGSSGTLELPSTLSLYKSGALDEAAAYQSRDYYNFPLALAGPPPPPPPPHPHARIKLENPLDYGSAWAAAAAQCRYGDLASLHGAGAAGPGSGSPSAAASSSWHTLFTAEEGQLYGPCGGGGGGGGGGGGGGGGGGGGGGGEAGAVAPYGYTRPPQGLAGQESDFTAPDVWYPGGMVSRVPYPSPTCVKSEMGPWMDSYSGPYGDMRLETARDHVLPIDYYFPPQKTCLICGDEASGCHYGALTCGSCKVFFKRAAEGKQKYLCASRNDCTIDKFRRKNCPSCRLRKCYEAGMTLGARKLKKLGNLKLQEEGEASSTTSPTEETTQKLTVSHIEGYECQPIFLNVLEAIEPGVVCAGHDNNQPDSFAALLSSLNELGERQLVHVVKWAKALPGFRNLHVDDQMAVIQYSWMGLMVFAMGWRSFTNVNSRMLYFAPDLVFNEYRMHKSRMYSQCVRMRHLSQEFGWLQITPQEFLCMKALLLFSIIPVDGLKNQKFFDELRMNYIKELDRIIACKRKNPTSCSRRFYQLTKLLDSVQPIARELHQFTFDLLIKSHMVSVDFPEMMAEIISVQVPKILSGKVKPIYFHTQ
The experiment in a line: Luciferase assay for AR transactivation, wild-type AR, PC-3 cells. On the set-up: Antiandrogenic activity evaluated by luciferase assay in PC-3 cells WT: key to the marks not given beside the values. In kind it is cell-based. Conditions: 0.1 nM DHT; for suppression of DHT-induced transactivation of wild-type AR: test compound 0.1-1 μM, PC-3 cells; for Antiandrogenic activity evaluated by luciferase assay in PC-3 cells WT: test compound 1 μM. The method, then:
PC-3 cells were transiently transfected with pCMV-MMTV-Luc, Renilla null luciferase and AR expressing plasmids. The cells were treated with 0.1 nM DHT with and without test compound for 24 hr. Relative luciferase activity was determined by dual luciferase assay kit (Promega), standardized to Renilla luciferase control and normalized to 0.1 nM DHT without test compound (100%).
After 16 h, the cells were treated with 0.1 nM of DHT and test compounds at the designated concentration. After further 24 h, the cells were lysed in 100 μL/well passive lysis buffer, and 20 μL of the cell lysates was used for detection of the luciferase activity using Dual Luciferase Assay System (Promega). All experiments were run in triplicate. Relative luciferase activity is determined as the ratio of inducible firefly luciferase luminescence divided by the luminescence of the renilla luciferase control normalized to 0.1 nM DHT without test compounds.
The potency of antagonistic activity: ++>+.
PC-3 cells were transiently transfected with plasmid expressing wild type human AR and MMTV-Luc. […] RLU, relative luciferase units, were normalized to that of 0.1 nM DHT alone.

The subject of series [3] is C4-2B cells.
For series [4], the system named is MDA PCa 2b cells.
Another series has as its system MDA-MB-231 cells. As to the kind of experiment: Growth inhibition, MDA-MB-231 breast cancer cells. In kind it is cell-based. Particulars: for IC50: Table 10, read-out: Cytotoxicity, IC50 (μM) MDA-M B231.
From the text: as §1

The target of series [5] is T2, hormone-binding pocket of the AR-LBD (Rattus norvegicus, UniProt P15207).
T2 construct: purchased Invitrogen P3018
T2 sequence (P15207 651-882 limits assumed): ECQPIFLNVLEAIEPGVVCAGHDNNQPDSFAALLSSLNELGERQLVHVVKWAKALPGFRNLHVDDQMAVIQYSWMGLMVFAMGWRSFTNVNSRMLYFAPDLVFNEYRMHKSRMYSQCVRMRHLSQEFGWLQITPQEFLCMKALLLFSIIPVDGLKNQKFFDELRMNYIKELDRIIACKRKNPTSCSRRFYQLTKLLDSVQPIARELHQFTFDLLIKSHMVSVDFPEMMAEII
As to the kind of experiment: AR fluorescence polarization (FP) competitor assay. Particulars: FIG. 8. An excerpt: The fluorescence polarization was used as a read-out and normalized to that of DMSO vehicle. Results are reported as average±s.d. of experiments performed in triplicates. DHT is included as a positive control.
A general note: Polarisation of emitted light reports the rotation of a fluorescent probe.

The next series has as its system HP-LNCaP cells. As to the kind of experiment: MTT cellular growth, HP-LNCaP. The class given is cell-based. Conditions: FIG. 10. Here is the method: HP-LNCaP cells were grown in the androgen-depleted medium (FIG. 9A) and grow more aggressively than LNCaP cells in the whole medium (FIG. 9B). Cellular growth was evaluated by MTT assays. […] HP-LNCaP cells over-express AR protein (FIG. 10C).

In another series the test system is Bic-LNCaP cells. As to the kind of experiment: MTT cellular growth, Bic-LNCaP. In kind it is cell-based. Particulars: FIG. 10.
Series [6] deals with C4-2B cells. As to the kind of experiment: MTT cell growth inhibition, C4-2B.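 Further: cells treated with a dilution series for 72 h, then MTT added and absorbance read at 600 nm, IC50 fitted from dose-response curves by nonlinear regression.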 Conditions: read-out: Cellular IC50 (μM) C4-2B, Table 9.
For series [7], the system named is PC-3 cells. The experiment in a line: MTT cell growth inhibition, PC-3.
In series [8] the test system is 22Rv1 cells. The experiment in a line: MTT cell growth inhibition, 22Rv1. Conditions: read-out: Cellular IC50 (μM) 22Rv1; Table 9; MTT.
Method: as §2, §3
In series [9] the test system is MDA PCa 2b cells. The experiment in a line: MTT cell growth inhibition, MDA PCa 2b.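 Further: MDA PCa 2b prostate cancer cells in BRFF-HPC1 with 20% FBS, exposed to compounds for 72 h, viable-cell MTT formazan read as absorbance at 600 nm, 0.5% DMSO vehicle.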 Particulars: MTT.
For the next series, the system named is LNCaP cells. Particulars: human, 72 h.
A further series deals with DU145 cells. As to the kind of experiment: IL-6 secretion, Human IL-6 ELISA. In kind it is cell-based. Conditions: DU-145 cells, 24 hr. Background: ELISA stands for enzyme-linked immunosorbent assay.
[10] abbreviates: read-out: Cellular IC50 (μM) PC-3, Table 9.

Each structure is given as a SMILES string. Like-named read-outs stand apart in the source and are kept apart here.

A word on the IC50: it is the midpoint of a concentration-inhibition curve.

`CC1=C(/C=C/C(=O)/C=C/c2cccc(C(F)(F)F)c2)C(C)(C)CCC1O` (racemic) [Compound B25]: the “effect in H-1975 lung cancer cell line” value in the series with H-1975 cells is on record as “effective”. Also, the IC50 in the series with H-1975 cells came to 6.3 µM; with PC-3 cells [1], 3.5 µM; with MCF-7 cells, 5.2 µM; in the series with 22Rv1 cells [2], 1.7 µM; in the series with C4-2B cells [3], 1.4 µM; with MDA PCa 2b cells [4], 2.6 µM. The IC50 with MDA-MB-231 cells worked out at 4.4 µM. Further, the “effect in MCF-7 breast cancer cell line” value with MCF-7 cells is recorded as “effective”. Also, on wild-type human AR, the “suppression of DHT-induced transactivation of wild-type AR” value is reported as “modest antiandrogenic activity”. Moreover, the “effect in MDA-MB-231 breast cancer cell line” value in the series with MDA-MB-231 cells is recorded as “effective”.
As to `CC1(C)CCC(O)C=C1/C=C/C(=O)/C=C/c1cnc2ccccc2c1` (centres unmarked) [Compound B95], the “effect in H-1975 lung cancer cell line” value in the series with H-1975 cells is listed as “effective”. In addition, the IC50 is 4.8 µM with H-1975 cells (Homo sapiens, NCI-H1975); 2.2 µM with PC-3 cells [1] (human, 72 h); 5.5 µM in the series on MCF-7 cells (Homo sapiens, MCF7); 1.1 µM in the series on 22Rv1 cells [2] (human, 72 h); 1.4 µM with C4-2B cells [6]; 2.3 µM in the series on PC-3 cells [7] (setting [10]). The IC50 with C4-2B cells [3] (human, 72 h) was 0.87 µM; with 22Rv1 cells [8], 1.2 µM; in the series on MDA PCa 2b cells [9] (read-out: Cellular IC50 (μM) PCa 2b, Table 9), 1.3 µM; with LNCaP cells, 0.63 µM; with MDA PCa 2b cells [4] (human, 72 h), 1.3 µM; with MDA-MB-231 cells (Homo sapiens, MDA-MB-231), 3.6 µM. In [5], the “competitive binding to the hormone-binding pocket of the AR-LBD” value is listed as “competitive binding”. Moreover, in the series on MCF-7 cells, the “effect in MCF-7 breast cancer cell line” value is given as “effective”. Besides, the “suppression of DHT-induced transactivation of wild-type AR” value on wild-type human AR is on record as “effective”. At wild-type human AR, the “Antiandrogenic activity evaluated by luciferase assay in PC-3 cells WT” value is on record as “++”. Further, the “activity against HP-LNCaP cells” value in the series with HP-LNCaP cells is “remains active”. In the series on Bic-LNCaP cells, the “activity against Bic-LNCaP cells” value is “remains active”. Further, the “effect in MDA-MB-231 breast cancer cell line” value with MDA-MB-231 cells is given as “effective”.
On to `CC1(C)CCC(O)C=C1/C=C/C(=O)/C=C/c1csc2ccccc12` (centres unmarked) [Compound B92], for which the “secretion of IL-6” value with DU145 cells is given as “suppress secretion”. Also, the “Antiandrogenic activity evaluated by luciferase assay in PC-3 cells WT” value on wild-type human AR is given as “++”. The IC50 is 1.1 µM in the series on C4-2B cells [6]; 3.3 µM in the series on PC-3 cells [7] (setting [10]); 2 µM with PC-3 cells [7] (read-out: Cytotoxicity in prostate cancer cell lines IC50 (μM), PC-3, Part D table, 72 hours, I.A. = Inactive); 1.5 µM in the series with 22Rv1 cells [8]; 0.87 µM in the series with MDA PCa 2b cells [9] (read-out: Cytotoxicity in prostate cancer cell lines IC50 (μM), PCa-2b, Part D table, 72 hours).

The values are drawn from US8470889B2 (TRT Pharma Inc., priority 2008, dated 2013).
